Values quoted from earlier work as cited in patent US9730971B2 (priority 2008, dated 2017).

Columns and labels:
Conditions in all cases: reported in Non Patent Literature 2
[1] = system: Gram-positive bacteria such as Staphylococcos aureus, Streptococcus mutans, Bacillus subtilis, and Bacillus ammoniagenes
[2] = system: Gram-negative bacteria such as Escherichia coli, Enterobacter aerogenes, and Pseudomonas aeruginosa
[3] = system: fungi such as Saccharomyces cerevisiae, Candida utilis, and Penichillium chrysogenum

For CCCCCCCCCCCCCCCc1cccc(O)c1C(=O)O [anacardic acid], the antimicrobial action [1] is listed as “antimicrobial action”, the antimicrobial action [2] is listed as “no antimicrobial action” and the antimicrobial action [3] is listed as “no antimicrobial action”.
